Assay results from patent US8758816B2, “Compositions comprising azelastine and methods of use thereof” (priority 2004, dated 2014).
Structures can show the parent of a compound that is named as a salt.

System: patients with seasonal allergic rhinitis (SAR)
Assay: MP 428 two-week randomized double-blind study: Total Nasal Symptom Score (TNSS), change from baseline
Type: in vivo, human
Parameters: key to Change from Baseline in AM TNSS, Mean / Change from Baseline in AM TNSS, LS Mean / Change from Baseline in AM TNSS, Median: TNSS sum of 4 symptoms each 0-3 (0=none, 3=severe); change from baseline
Procedure: A two-week, randomized, double-blind study, which evaluated the effects of the co-administration of ASTELIN® (azelastine hydrochloride (HCl)) and FLONASE® (fluticasone propionate) compared to either product alone in patients with seasonal allergic rhinitis (SAR) was conducted during the 2006 Texas mountain cedar season. After a 5-day placebo lead-in period, 151 patients with moderate-to-severe allergic rhinitis symptoms were randomized to either: (1) (49 total patients) ASTELIN® (azelastine hydrochloride (HCl)) plus placebo saline nasal spray 2 sprays per nostril, 15 minutes apart, twice daily (AM & PM); (2) (50 total patients) FLONASE® (fluticasone propionate) plus placebo saline nasal spray, 2 sprays per nostril, 15 minutes apart, once daily (AM) and two sessions of placebo saline nasal spray, 2 sprays per nostril, 15 minutes apart (PM); or (3) (52 total patients) the co-administration of ASTELIN® (azelastine hydrochloride (HCl)) 2 sprays per nostril plus FLONASE® (fluticasone propionate) 2 sprays per nostril (AM), 15 minutes apart, and ASTELIN® (azelastine hydrochloride (HCl)) 2 sprays per nostril plus placebo saline nasal spray, 15 minutes apart, (PM) for a 2-week double-blind treatment period.
The primary efficacy variable was the change from baseline in the Total Nasal Symptom Score (TNSS), which comprised sneezing, itchy nose, runny nose, and nasal congestion (individual symptoms scores were assigned a value between 0 and 3, where 0=no symptoms and 3=severe symptoms). This study was not statistically designed to assess the differences between ASTELIN® and FLONASE®.

[1] = Day 2, Intent-to-Treat Population
[2] = Day 3, Intent-to-Treat Population
[3] = Day 4, Intent-to-Treat Population
[4] = Day 5, Intent-to-Treat Population

## CN1CCCC(n2nc(Cc3ccc(Cl)cc3)c3ccccc3c2=O)CC1 (racemic) [Azelastine, (±)-1-(2H)-phthalazinone, 4-[(4-chlorophenyl)methyl]-2-(hexahydro-1-methyl-1H-azepin-4-yl)-, mono-hydrochloride]
All Randomized Patients
  Primary Reason for Discontinuation From Study: Treatment Failure: 0 (0.0) N (%)
[1]
  Change from Baseline in AM TNSS, LS Mean: −1.46
  Change from Baseline in AM TNSS, Mean: −1.48
  Change from Baseline in AM TNSS, Median: −1.25
  Change from Baseline in AM and PM Combined TNSS, Mean: −3.23
  Change from Baseline in AM and PM Combined TNSS, Median: −2.67
  Change from Baseline in PM TNSS, LS Mean: −1.65
  Change from Baseline in PM TNSS, Mean: −1.76
  Change from Baseline in PM TNSS, Median: −1.00
  Percent Change from Baseline in AM TNSS, LS Mean: −15.45%
  Percent Change from Baseline in AM TNSS, Mean: −15.79%
  Percent Change from Baseline in AM TNSS, Median: −14.29%
  Percent Change from Baseline in AM and PM Combined TNSS, LS Mean: −16.31%
  Percent Change from Baseline in AM and PM Combined TNSS, Mean: −16.93%
  Percent Change from Baseline in AM and PM Combined TNSS, Median: −12.31%
  Percent Change from Baseline in PM TNSS, LS Mean: −17.15%
  Percent Change from Baseline in PM TNSS, Mean: −17.76%
  Percent Change from Baseline in PM TNSS, Median: −10.00%
Day 2, Intent-to-Treat Population, ANCOVA model
  Change from Baseline in AM and PM Combined TNSS, LS Mean: −3.10
Day 2, Per-Protocol Population
  Change from Baseline in AM and PM Combined TNSS, LS Mean: −3.08
  Change from Baseline in AM and PM Combined TNSS, Mean: −3.23
  Change from Baseline in AM and PM Combined TNSS, Median: −2.67
  Percent Change from Baseline in AM and PM Combined TNSS, LS Mean: −16.25%
  Percent Change from Baseline in AM and PM Combined TNSS, Mean: −16.93%
  Percent Change from Baseline in AM and PM Combined TNSS, Median: −12.31%
[2]
  Change from Baseline in AM TNSS, LS Mean: −1.28
  Change from Baseline in AM TNSS, Mean: −1.29
  Change from Baseline in AM TNSS, Median: −0.80
  Change from Baseline in AM and PM Combined TNSS, Mean: −3.28
  Change from Baseline in AM and PM Combined TNSS, Median: −1.67
  Change from Baseline in PM TNSS, LS Mean: −1.91
  Change from Baseline in PM TNSS, Mean: −1.98
  Change from Baseline in PM TNSS, Median: −1.50
  Percent Change from Baseline in AM TNSS, LS Mean: −13.37%
  Percent Change from Baseline in AM TNSS, Mean: −13.75%
  Percent Change from Baseline in AM TNSS, Median: −7.89%
  Percent Change from Baseline in AM and PM Combined TNSS, LS Mean: −16.85%
  Percent Change from Baseline in AM and PM Combined TNSS, Mean: −17.08%
  Percent Change from Baseline in AM and PM Combined TNSS, Median: −8.11%
  Percent Change from Baseline in PM TNSS, LS Mean: −19.66%
  Percent Change from Baseline in PM TNSS, Mean: −20.01%
  Percent Change from Baseline in PM TNSS, Median: −15.15%
Day 3, Intent-to-Treat Population, ANCOVA model
  Change from Baseline in AM and PM Combined TNSS, LS Mean: −3.21
Day 3, Per-Protocol Population
  Change from Baseline in AM and PM Combined TNSS, LS Mean: −3.19
  Change from Baseline in AM and PM Combined TNSS, Mean: −3.28
  Change from Baseline in AM and PM Combined TNSS, Median: −1.67
  Percent Change from Baseline in AM and PM Combined TNSS, LS Mean: −16.85%
  Percent Change from Baseline in AM and PM Combined TNSS, Mean: −17.08%
  Percent Change from Baseline in AM and PM Combined TNSS, Median: −8.11%
[3]
  Change from Baseline in AM TNSS, LS Mean: −1.79
  Change from Baseline in AM TNSS, Mean: −1.76
  Change from Baseline in AM TNSS, Median: −1.33
  Change from Baseline in AM and PM Combined TNSS, Mean: −3.93
  Change from Baseline in AM and PM Combined TNSS, Median: −2.92
  Change from Baseline in PM TNSS, LS Mean: −2.09
  Change from Baseline in PM TNSS, Mean: −2.17
  Change from Baseline in PM TNSS, Median: −2.20
  Percent Change from Baseline in AM TNSS, LS Mean: −18.88%
  Percent Change from Baseline in AM TNSS, Mean: −18.84%
  Percent Change from Baseline in AM TNSS, Median: −14.89%
  Percent Change from Baseline in AM and PM Combined TNSS, LS Mean: −20.41%
  Percent Change from Baseline in AM and PM Combined TNSS, Mean: −20.50%
  Percent Change from Baseline in AM and PM Combined TNSS, Median: −14.29%
  Percent Change from Baseline in PM TNSS, LS Mean: −21.42%
  Percent Change from Baseline in PM TNSS, Mean: −21.99%
  Percent Change from Baseline in PM TNSS, Median: −23.08%
Day 4, Intent-to-Treat Population, ANCOVA model
  Change from Baseline in AM and PM Combined TNSS, LS Mean: −3.89
Day 4, Per-Protocol Population
  Change from Baseline in AM and PM Combined TNSS, LS Mean: −3.87
  Change from Baseline in AM and PM Combined TNSS, Mean: −3.93
  Change from Baseline in AM and PM Combined TNSS, Median: −2.92
  Percent Change from Baseline in AM and PM Combined TNSS, LS Mean: −20.39%
  Percent Change from Baseline in AM and PM Combined TNSS, Mean: −20.50%
  Percent Change from Baseline in AM and PM Combined TNSS, Median: −14.29%
[4]
  Change from Baseline in AM TNSS, LS Mean: −2.25
  Change from Baseline in AM TNSS, Mean: −2.23
  Change from Baseline in AM TNSS, Median: −1.67
  Change from Baseline in AM and PM Combined TNSS, Mean: −4.48
  Change from Baseline in AM and PM Combined TNSS, Median: −3.67
  Change from Baseline in PM TNSS, LS Mean: −2.19
  Change from Baseline in PM TNSS, Mean: −2.25
  Change from Baseline in PM TNSS, Median: −1.20
  Percent Change from Baseline in AM TNSS, LS Mean: −23.57%
  Percent Change from Baseline in AM TNSS, Mean: −23.62%
  Percent Change from Baseline in AM TNSS, Median: −15.79%
  Percent Change from Baseline in AM and PM Combined TNSS, LS Mean: −23.20%
